Laboratory results: patent US7074780B2, “Substituted phenylcyclohexanecarboxamides and their use” (Bayer Aktiengesellschaft, priority 2000, dated 2006)

test system: adenosine-uptake system; assay: Inhibition of the adenosine uptake in rabbit erythrocytes; type: cell-based; settings: Oryctolagus cuniculus, 0.25 h; rabbit erythrocyte preparation; concentration at which 50% of the adenosine originally employed is still present 15 min after addition of adenosine; 30° C.; read-out: IC50 (inhibition of functional adenosine uptake)
Experimental: 2. Inhibition of the Adenosine Uptake in Rabbit Erythrocytes by the Compounds According to the Invention
The capability of substances to influence the adenosine-uptake system is investigated by determining the inhibitory effect of the substances on functional adenosine uptake.
For the functional adenosine-uptake test, an erythrocyte preparation from rabbit blood is used. The blood is drawn intravenously using citrate (3 ml Monovette 9NC from Sarstedt) as anticoagulant. The blood is centrifuged at 3000 g for 5 min and the erythrocytes are suspended in 10 mM 3-(N-morpholino)propanesulphonic acid buffer (MOPS)/0.9% NaCL solution pH7.4. The suspension is diluted to one hundredth of the original blood volume. In each case, 990 μl of the suspension are admixed with 10 μl of a suitable concentration of the substance to be investigated, and the mixture is incubated at 30° C. for 5 min. 5 μl of a 4 mM adenosine solution are then added, and the mixture is incubated at 30° C. for another 15 min. The samples are then centrifuged at 3000 g for 5 min and in each case 700 μl of the supernatant are admixed with 28 μl of 70% strength HClO4, allowed to stand in an ice bath for 30 min and centrifuged at 16,000 g for 3 min, and 350 μl of the sample are neutralized using 30 μl of 5N NaOH. 50 μl of the sample are applied to a column (Waters Symmetry C18 5 μm 3.9×150 mm). A Spherisorb ODS II 5 μm 4.6×10 mm column is used as precolumn. The mobile phase used is a gradient of […] KH2PO4/5 mM tributylamine pH7 (mobile phase A) and a mixture of mobile phase A/methanol 1/1 (mobile phase B). The gradient is from 10 to 40% B, at a flow rate of 0.5 ml/min. The adenosine which is present is quantified by its absorption at 260 nm, as are the hypoxanthine and inosine formed. The IC50 is the concentration of active compound at which, 15 min after addition of adenosine, 50% of the adenosine concentration originally employed is still present.

Row | SMILES | IC50 [nM]
1 | NC(=O)[C@@H](NC(=O)[C@@H]1CCCC[C@H]1c1ccc(CN(C(=O)N2CCOCC2)c2ccccc2)cc1)c1ccccc1 [Example 1-1, N-{4-[(1R,2R)-2-({[(1S)-2-Amino-2-oxo-1-phenylethyl]amino}carbonyl)cyclohexyl]benzyl}-N-phenyl-4-morpholinecarboxamide] | 30
2 | CN(C)C(=O)N(Cc1ccc([C@@H]2CCCC[C@H]2C(=O)N[C@H](C(N)=O)c2ccccc2)cc1)c1ccccc1 [Example 1-3] | 20
3 | CN(C)C(=O)N(Cc1ccc([C@@H]2CCCC[C@H]2C(=O)N[C@H](C(N)=O)c2ccccc2)cc1)C1CC1 [Example 1-14] | 30
4 | CCN(CC)C(=O)N(Cc1ccc([C@@H]2CCCC[C@H]2C(=O)N[C@H](C(N)=O)c2ccccc2)cc1)c1ccccn1 [Example 1-33] | 40
5 | CCN(CCO)C(=O)N(Cc1ccc([C@@H]2CCCC[C@H]2C(=O)N[C@H](C(N)=O)c2ccc(F)cc2)cc1)c1ccc(F)cc1 [Example 2-1, (1R,2R)-N-[(1S)-2-Amino-1-(4-fluorophenyl)-2-oxoethyl]-2-(4-{[{[ethyl(2-hydroxyethyl)amino]carbonyl}(4-fluorophenyl)amino]methyl}phenyl)cyclohexanecarboxamide] | 20
6 | CCN(CCO)C(=O)N(Cc1ccc([C@@H]2CCCC[C@H]2C(=O)N[C@H](C(N)=O)c2ccccc2)cc1)c1ccccc1 [Example 2-18, (1R,2R)-N-[(1S)-2-Amino-1-phenyl-2-oxoethyl]-2-(4-{[{[ethyl(2-hydroxyethyl)-amino]carbonyl}(phenyl)amino]methyl}phenyl)cyclohexanecarboxamide] | 20
